Counter-ions that a name gives are not always drawn. Like-named read-outs stand apart in the source and are kept apart here.
Columns and labels:
HepG2 cells = assay: Increase in LDL-binding to HepG2 cells; format: cell-based; conditions: 10 μM test compound, 20 hours, specific human [125I]LDL binding, normalized by protein, read-out: LDL binding (% of control)
Experimental: Increase in LDL-binding to HepG2 cells LDL-binding was measured according to the method of J. L. Goldstein. HepG2 cells were purchased from ATCC (American type culture collection) and seeded in 6-well plate with collagen coating (Sumitomo Bakelite), and cultured in Eagle's minimum essential medium (MEM) containing 10%-fetal bovine serum at 37° C. for 4 days. […] After washing with phosphate buffered saline cells were incubated with MEM containing 25 mM-HEPES and 1%-bovine serum albumin (fatty acid free) in the presence of human [^125 I]LDL (4 μg/ml) at 6° C. for 2 hours. After washing cells bound [^125 I]LDL was dissociated with dextran sulfate and the radioactivity was measured (total binding). [^125 I]LDL binding to cells was also measured in the presence of LDL (300 μg/ml) as a non-specific binding (NSB). Specific [^125 I]LDL-binding was calculated by subtracting NSB from total binding and was normalized by protein content measured by the method of lowry. Data was expressed as percentage of the control.

Golden Syrian hamsters = assay: Cholesterol lowering activity in Golden hamster; format: in vivo, Golden Syrian hamster; conditions: Mesocricetus auratus, po, 96 h, 20 mg/kg/d orally, once daily for 4 days
Experimental: Cholesterol lowering activity in Golden hamster Male Golden Syrian hamsters (110-130 g) were maintained freely on water and a laboratory diet (CE-2, Clea Japan Inc., Tokyo). […] Blood was taken from orbital sinus and plasma total cholesterol and triglyceride were measured an automatic analyzer (Hitachi 7070, Hitachi Ltd., Tokyo) using commercial kits (Wako Pure Chemical Industries, Osaka), and plasma HDL-cholesterol using a commercial kit (Kyowa Medex Co., Ltd., Tokyo) before and after the treatment of compound. Non-HDL cholesterol was calculated by subtracting HDL-cholesterol from total cholesterol. |Non-HDL-C (non-HDL-cholesterol): [total cholesterol]-[HDL-cholesterol] |TG: triglyceride

Wistar fatty rats = assay: Lipid-lowering effect in Wistar fatty rats; format: in vivo, Wistar fatty rat; conditions: 30 mg/kg/day by stomach tube, 2 weeks, plasma, Mean ± SD (n = 6)
Experimental: Lipid-lowering effect in Wistar fatty rats
Male Waistar fatty rats were maintained on free access to normal diet (CE-2, Clea Japan) and water. Body weights were measured at 10 weeks of age and the blood was taken from the orbital sinus and determined for plasma total cholesterol (TC), triglyceride (TG), glucose, and HDL-cholesterol (HDL-C) with Wako Pure Chemical and Kyowa Medex kits using an automatic analyzer (Hitachi 7070). Non-HDL-cholesterol (non-HDL-C) was calculated by subtracting HDL-cholesterol from total cholesterol.
The rats were divided into 2 groups (n=6) and 30 mg/kg/day of the test compound (Example 22) in 0.5% methylcellulose solution was administered by a stomach tube to one of the groups once daily for 2 weeks (test group). 0.5% Methylcellulose solution only was similarly administered to the other group (control group). On day 14, body weights were measured again and the blood was taken from the orbital sinus and determined for plasma total cholesterol, HDL-cholesterol, triglyceride, and glucose in the same manner as before.

[1] = plasma triglyceride, read-out: TG (% of control)
[2] = plasma, [total cholesterol]-[HDL-cholesterol], read-out: Non-HDL-C (% of control)

Which results are given for `O=C(NCC1CCN(CCCc2ccccc2)CC1)C1=Cc2cnc3cccc(n23)S1` [Example 22, N-[1-(3-phenylpropan-1-yl)piperidin-4-ylmethyl]-5-thia-1,8b-diazaacenaphthylene-4-carboxamide Dihydrochloride]?
activity at 10 µM (HepG2 cells): 126%; response vs control in vivo at 20 mg/kg (Golden Syrian hamsters; [1]): 62.3%; response vs control in vivo at 20 mg/kg (Golden Syrian hamsters; [2]): 58.8%; TG (Wistar fatty rats; * P < 0.05 vs control group (324.7 ± 74.2)): 258.3 ± 38.4 mg/dL; Glucose (Wistar fatty rats; * P < 0.05 vs control group (366.8 ± 72.0)): 268.2 ± 81.9 mg/dL; Non-HDL-C (Wistar fatty rats; ** P < 0.01 vs control group (39.9 ± 3.7)): 30.0 ± 5.2 mg/dL

Which activity at 10 µM (HepG2 cells) does the source give for `O=C(NCC1CCN(CCCc2ccc(F)cc2F)CC1)C1=Cc2cnc3cccc(n23)S1` [Example 76, N-[1-(3-(2,4-difluorophenyl)propan-1-yl)piperidin-4-ylmethyl]-5-thia-1,8b-diazaacenaphthylene-4-carboxamide Dihydrochloride] here?
Its activity at 10 µM is 282%.

What about the response vs control in vivo at 20 mg/kg (Golden Syrian hamsters; [1]) of the same molecule?
Its response vs control in vivo at 20 mg/kg is 58.1%.

What about the response vs control in vivo at 20 mg/kg (Golden Syrian hamsters; [2]) of the same molecule?
Its response vs control in vivo at 20 mg/kg is 74%.
